Results on 14 compounds are retold here after ChEMBL document CHEMBL1151496, “Nonpeptide GPIIB/IIIA inhibitors. 16. Thieno[2,3-b]thiophene -sulfonamides are potent inhibitors of platelet aggregation” (Bioorg Med Chem Lett, 1997).

For experiment [1], the species on record is Homo sapiens. Kind of experiment: Measured by competition with fluorescent ligand L-762,745 for binding to resting human gel filtered platelets using flow cytometry. It is filed as functional. (Flow cytometry measures light scatter and fluorescence of single cells or particles in a stream.)
For experiment [2], the species on record is Homo sapiens. Kind of experiment: The compound was tested for the inhibition of platelet aggregation. It is filed as functional.
Experiment [3] is filed under the species Homo sapiens. Kind of experiment: Tested for the inhibition of [125 I] -L 692,884 binding to purified GPIIb/IIIa coated onto yttrium silicate Scintillation proximity assay fluomicrospheres. (SPA uses beads or plates that emit light when radiolabelled molecules are held near them.)
The subject of experiment [4] is Canis familiaris. Kind of experiment: Tested ex vivo inhibition of platelet aggregation after oral dose of 200 ug/kg through out 24 hr in dog. It counts as functional. To be noted: Canis lupus familiaris.
Experiment [5] deals with Canis familiaris. Kind of experiment: Tested ex vivo inhibition of platelet aggregation after oral dose of 200 ug/kg through out 8 hr in dog. It counts as functional. To be noted: Canis lupus familiaris.

In general, Kd refers to the constant that tells how readily two partners part at equilibrium. Higher therefore signals weaker binding. The IC50 is the concentration that gives 50% inhibition. Lower therefore signals greater potency in that assay. The inhibition in vivo is the relative decrease from the control value, in per cent. Read a high inhibition in vivo as a response far below the control.

`O=C(NCc1ccccc1)N[C@@H](CNC(=O)c1cc2sc(CCC3CCNCC3)cc2s1)C(=O)O`: the affinity in experiment [1], expressed as Kd, was 33 nM. Further, the IC50 in experiment [2] was determined as 36 nM. This compound also came in with an ED50 in experiment [3] of 2.6 nM.

In turn, `O=C(NC[C@H](NS(=O)(=O)c1cccnc1)C(=O)O)c1cc2cc(CCC3CCNCC3)sc2s1` showed an IC50 in experiment [2] of 8 nM.

In experiment [2], `O=C(O)CCNC(=O)c1cc2cc(CCC3CCNCC3)sc2s1` gave an IC50 of 410 nM. Further, the ED50 in experiment [3] worked out at 48 nM.

`O=C(NC[C@H](NS(=O)(=O)c1cccs1)C(=O)O)c1cc2sc(CCC3CCNCC3)cc2s1` yielded a Kd in experiment [1] of 0.092 nM. Further, the IC50 in experiment [2] amounted to 13 nM. For the same compound, the ED50 in experiment [3] turned out to be 0.04 nM.

`O=C(NC[C@H](NS(=O)(=O)c1ccccc1)C(=O)O)c1cc2cc(CCC3CCNCC3)sc2s1`: the Kd in experiment [1] was 0.023 nM. The inhibition in vivo at 0.2 mg/kg in experiment [4] is 50%; in experiment [5] it was over 80%. The compound further registered an IC50 in experiment [2] of 8 nM. Moreover, in experiment [3], the ED50 turned out to be 0.03 nM.

On to `O=C(O)CCNC(=O)c1cc2sc(CCC3CCNCC3)cc2s1`, for which the Kd in experiment [1] was about 600 nM. This compound also displayed an IC50 in experiment [2] of 500 nM.

Take `O=C(NC[C@H](NS(=O)(=O)c1cccs1)C(=O)O)c1cc2cc(CCC3CCNCC3)sc2s1`: in experiment [1], binding was characterised by a dissociation constant (Kd) of 0.15 nM. This compound displayed an IC50 in experiment [2] of 9 nM. Also, the ED50 in experiment [3] was determined as 0.04 nM.

As to `O=C(NC[C@H](NS(=O)(=O)c1cccnc1)C(=O)O)c1cc2cc(CC3CCNCC3)sc2s1`, in experiment [2], the IC50 amounted to 23 nM.

As for `O=C(NC[C@H](NS(=O)(=O)c1ccc(Cl)cc1)C(=O)O)c1cc2cc(CCC3CCNCC3)sc2s1`, the Kd in experiment [1] was found to be 0.026 nM. The compound further gave an IC50 in experiment [2] of 11 nM. The ED50 in experiment [3] was 0.09 nM.

`O=C(NC[C@H](NS(=O)(=O)c1cccnc1)C(=O)O)c1cc2cc(CCCC3CCNCC3)sc2s1`: the IC50 in experiment [2] came out at 21 nM.

For the compound `O=C(NCc1ccccc1)N[C@@H](CNC(=O)c1cc2cc(CCC3CCNCC3)sc2s1)C(=O)O`, the Kd in experiment [1] came out at 94 nM. In addition, it took 76 nM to reach half-maximal inhibition in experiment [2] (IC50). In addition, in experiment [3], the ED50 stood at 1.9 nM.

The compound `CCCCS(=O)(=O)N[C@@H](CNC(=O)c1cc2sc(CCC3CCNCC3)cc2s1)C(=O)O` registered a dissociation constant Kd in experiment [1] of 3 nM. For the same compound, the IC50 in experiment [2] was determined as 10 nM. In experiment [3], this compound had an ED50 of 0.21 nM.

`O=C(NC[C@H](NS(=O)(=O)c1ccccc1)C(=O)O)c1cc2sc(CCC3CCNCC3)cc2s1` returned a Kd in experiment [1] of 0.15 nM. Further, it took 8 nM to reach half-maximal inhibition in experiment [2] (IC50). The same compound showed an ED50 in experiment [3] of 0.08 nM.

As to `CCCCS(=O)(=O)N[C@@H](CNC(=O)c1cc2cc(CCC3CCNCC3)sc2s1)C(=O)O`, in experiment [1], the Kd was found to be 5.6 nM. 32 nM corresponded to half-maximal inhibition in experiment [2] (IC50). Also, the ED50 in experiment [3] worked out at 0.12 nM.
